These are literature values, as cited in US20080242731A1, “TOPICAL ANESTHESIA FORMULATION FOR BODILY CAVITIES” (T&A PHARMA PTY. LIMITED, priority 2003, published 2008).

The conditions of this series: maintained at pH 7, low concentration, within 4 weeks.

On to `CCN(CC)CC(=O)Nc1c(C)cccc1C` [lignocaine, Lignocaine], for which the degradation is reported as 35%.
